Laboratory results as given in paper PMC8313942, “Lipase from new isolate Bacillus cereus ATA179: optimization of production conditions, partial purification, characterization and its potential in the detergent industry” (Turkish Journal of Biology, 2021).

Tested on: T1, lipase from Bacillus cereus ATA179
T1 construct: gene extracellular lipase; 47 kDa by SDS-PAGE
Experiment: lipase activity at varied tributyrin, Lineweaver-Burk plot
Assay type: biochemical
Settings: tributyrin 0.1-1.2 mM; partially purified enzyme; pH and temperature of the kinetic assay not given

Q: How did the Km turn out when `CCCC(=O)OCC(COC(=O)CCC)OC(=O)CCC` [tributyrin] was run?
A: Its Km is 110 µM.
